Test [1] has as its target T1, Adenosine receptor A2a (Homo sapiens, UniProt P29274). As to the kind of experiment: Displacement of [3H]ZM241385 at human A2A receptor expressed in CHO cell membrane at 1 uM after 60 mins by scintillation counting method. It is filed as cell membranes.
Test [2] has as its target T2, Adenosine receptor A2b (Homo sapiens) (UniProt P29275).
T2 sequence (whole entry): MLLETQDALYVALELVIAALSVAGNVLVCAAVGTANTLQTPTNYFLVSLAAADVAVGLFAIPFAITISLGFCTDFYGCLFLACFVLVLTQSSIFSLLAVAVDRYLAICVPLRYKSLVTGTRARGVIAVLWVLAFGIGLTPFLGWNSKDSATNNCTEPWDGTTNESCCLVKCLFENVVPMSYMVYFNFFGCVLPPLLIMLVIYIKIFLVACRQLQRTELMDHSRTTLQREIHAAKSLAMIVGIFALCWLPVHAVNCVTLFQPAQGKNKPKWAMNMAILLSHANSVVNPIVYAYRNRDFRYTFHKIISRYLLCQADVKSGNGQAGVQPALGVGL
As to the kind of experiment: Antagonist activity at human A2B receptor expressed in CHO cells assessed as inhibition of NECA-stimulated cAMP production at 1 uM by scintillation counting method. It is filed as functional, cell-based. Background: Cyclic AMP is a second messenger, typically raised through Gs and lowered through Gi signalling.

The target in test [3] is T3, Adenosine receptor A3 (Rattus norvegicus, UniProt P28647).
T3 sequence (P28647 whole entry): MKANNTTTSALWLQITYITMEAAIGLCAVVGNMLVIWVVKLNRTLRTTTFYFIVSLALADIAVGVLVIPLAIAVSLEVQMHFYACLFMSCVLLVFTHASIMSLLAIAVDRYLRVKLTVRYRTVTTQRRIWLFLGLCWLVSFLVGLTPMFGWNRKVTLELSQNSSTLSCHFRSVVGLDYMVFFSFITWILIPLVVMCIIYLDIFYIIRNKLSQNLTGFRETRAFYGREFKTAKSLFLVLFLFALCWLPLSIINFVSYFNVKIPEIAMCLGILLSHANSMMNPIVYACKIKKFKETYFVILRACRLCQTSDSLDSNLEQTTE
Put plainly: Displacement of [125I]AB-MECA at rat A3 receptor expressed in HEK293 cells after 60 mins by scintillation counting method. It is filed as cell-based. A general note: Loss of bound radioactivity is the signal in a displacement assay; it reports binding, not function.

For test [4], the target named is T4, Adenosine receptor A3 (Homo sapiens, UniProt P0DMS8).
T4 sequence (P0DMS8 whole entry): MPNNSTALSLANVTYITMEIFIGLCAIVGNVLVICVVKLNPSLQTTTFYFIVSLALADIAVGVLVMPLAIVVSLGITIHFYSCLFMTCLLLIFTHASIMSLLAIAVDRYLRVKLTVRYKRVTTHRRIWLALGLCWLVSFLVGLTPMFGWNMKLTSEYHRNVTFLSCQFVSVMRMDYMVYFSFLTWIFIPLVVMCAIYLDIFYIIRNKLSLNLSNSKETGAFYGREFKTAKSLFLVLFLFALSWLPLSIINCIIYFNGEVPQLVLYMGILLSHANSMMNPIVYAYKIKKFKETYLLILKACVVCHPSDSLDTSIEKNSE
Put plainly: Antagonist activity at human A3 receptor expressed in CHO cells assessed as inhibition of Cl-IB-MECA-induced cAMP production by scintillation counting method. It is filed as functional, cell-based.

For test [5], the target named is T4, Adenosine receptor A3. As to the kind of experiment: Displacement of [125I]AB-MECA at human […] receptor expressed in CHO cell membrane after 60 mins by scintillation counting method. It is filed as cell membranes.
For test [6], the target named is T5, Adenosine receptor A1 (Homo sapiens) (UniProt P30542).
T5 sequence (whole entry): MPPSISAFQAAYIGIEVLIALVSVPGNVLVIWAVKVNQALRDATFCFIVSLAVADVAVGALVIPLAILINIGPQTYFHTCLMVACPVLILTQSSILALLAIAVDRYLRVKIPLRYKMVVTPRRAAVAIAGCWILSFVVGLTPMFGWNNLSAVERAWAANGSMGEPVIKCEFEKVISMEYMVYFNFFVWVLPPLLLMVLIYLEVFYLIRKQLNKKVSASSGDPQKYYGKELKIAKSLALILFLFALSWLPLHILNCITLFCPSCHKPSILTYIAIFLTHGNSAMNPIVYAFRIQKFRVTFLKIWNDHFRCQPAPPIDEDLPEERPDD
As to the kind of experiment: Displacement of [3H]DPCPX at human A1 receptor expressed in CHO cell membrane at 1 uM after 120 mins by scintillation counting method. It is filed as cell membranes.

Test [7] deals with T1, Adenosine receptor A2a. As to the kind of experiment: Displacement of [3H]ZM241385 at human A2A receptor expressed in CHO cell membrane after 60 mins by scintillation counting method. It is filed as cell membranes.
Test [8] has as its target T6, Adenosine receptor A1 (Homo sapiens, UniProt P30542).
T6 sequence (P30542 whole entry): T5 sequence (whole entry)
Put plainly: Displacement of [3H]DPCPX at human A1 receptor expressed in CHO cell membrane after 120 mins by scintillation counting method. It is filed as cell membranes.

Structures are written as SMILES. A value given as a limit tells only on which side of the number the result lay.

T1 sequence (P29274 whole entry): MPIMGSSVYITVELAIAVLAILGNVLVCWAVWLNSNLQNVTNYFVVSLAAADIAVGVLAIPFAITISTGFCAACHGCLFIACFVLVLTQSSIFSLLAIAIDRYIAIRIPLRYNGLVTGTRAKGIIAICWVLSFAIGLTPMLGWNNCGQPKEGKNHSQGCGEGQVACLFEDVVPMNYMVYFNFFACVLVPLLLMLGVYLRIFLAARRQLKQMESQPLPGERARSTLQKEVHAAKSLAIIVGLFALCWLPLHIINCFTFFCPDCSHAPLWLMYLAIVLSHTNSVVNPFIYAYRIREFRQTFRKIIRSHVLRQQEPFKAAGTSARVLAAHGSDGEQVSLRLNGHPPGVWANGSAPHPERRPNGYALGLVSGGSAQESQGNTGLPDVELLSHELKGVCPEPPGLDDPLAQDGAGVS

The inhibition is the share of the control response that was lost under treatment. Broadly, the Ki is the dissociation constant of the complex between target and ligand, obtained from inhibition or displacement. High values mean a looser hold on the target, low ones a stronger hold on the target. As usually defined, the IC50 is the concentration needed to halve the response being measured. For the compound `O=C(Nc1nc(-c2cccs2)nc2cn(-c3ccccc3)nc12)c1ccncc1`, the results for the inhibition in test [1], in test [2] and in test [6] were 1%, 1% and 20%, respectively. In addition, the results for the Ki in test [3] and in test [5] were over 10000 nM and 9.54 nM, respectively. In addition, the IC50 in test [4] was found to be 37 nM.
For the compound `COc1ccc(-c2nc(NC(=O)c3ccccc3)c3nn(-c4ccccc4)cc3n2)cc1`, the inhibition stood at 1% in test [1], 1% in test [2] and 2% in test [6]. In addition, the values for the inhibition constant (Ki) in test [3] and in test [5] were over 10000 nM and 6.42 nM, respectively. Moreover, in test [4], the IC50 came to 26 nM.
On to `Nc1nc(-c2ccccc2)nc2cn(Cc3ccccc3)nc12`, for which the values for the inhibition constant Ki in test [7], in test [8] and in test [5] were 300 nM, 250 nM and 54 nM, respectively. Moreover, the inhibition in test [2] is 1%.
For `COc1ccc(C(=O)Nc2nc(-c3cccs3)nc3cn(-c4ccccc4)nc23)cc1`, the inhibition in test [1], in test [2] and in test [6] was 1% each time. For the same compound, the Ki in test [3] is over 10000 nM; in test [5], 0.027 nM. Besides, in test [4], the IC50 was found to be 0.11 nM.
Consider `Nc1nc(-c2cccs2)nc2cn(-c3ccccc3)nc12`, for which the Ki in test [7] came to 115 nM; in test [8] it was 52 nM; in test [5], 9.7 nM. Also, in test [2], the inhibition amounted to 27%.
As to `O=C(Nc1nc(-c2cccs2)nc2cn(-c3ccccc3)nc12)c1ccccc1`, the inhibition in test [1], in test [2] and in test [6] was 1% each time. The Ki in test [3] is over 10000 nM; in test [5] it was 2.12 nM. In test [4], the IC50 stood at 5.32 nM.
Take `COc1ccc(C(=O)Nc2nc(-c3ccc(OC)cc3)nc3cn(-c4ccccc4)nc23)cc1`: the values for the inhibition in test [1], in test [2] and in test [6] were 1%, 1% and 3%, respectively. For the same compound, the Ki in test [3] was over 10000 nM; in test [5], 1.31 nM. The IC50 in test [4] amounted to 4.27 nM.
Consider `COc1ccc(-c2nc(NC(=O)c3ccncc3)c3nn(-c4ccccc4)cc3n2)cc1`, for which the inhibition amounted to 1% in test [1], 1% in test [2] and 3% in test [6]. In addition, the results for the Ki in test [3] and in test [5] were over 10000 nM and 9.83 nM, respectively. In addition, in test [4], the IC50 stood at 39 nM.

The values above are taken from ChEMBL document CHEMBL3751669, “Structural refinement of pyrazolo[4,3-d]pyrimidine derivatives to obtain highly potent and selective antagonists for the human A3 adenosine receptor” (Eur J Med Chem, 2016).
